From PMC4767259 (Journal of nuclear medicine : official publication, Society …, 2015)

Tests used:
[1] = test system: leg muscles (lateral gastrocnemius) and systemic muscles (spinotrapezius); assay: 18F-FDG uptake PET imaging of muscles, SUV time-activity curve slope analysis; type: in vivo, CD IGS rats; details: SF group: insulin 3.39-48.48 IU/kg into tail vein, n = 3, mean ± SD
[2] = intraarterial (left femoral artery) intervention, insulin 0.34-0.38 IU/kg, rats

With Insulin as the substance, how does the “baseline of the 18F-FDG uptake SUVs” value [1] read?
The value was 0.7547 ± 0.1208.

What about the Adverse events [2] of the same substance?
Its Adverse events is “No adverse events were observed”.
